These results are taken from patent publication US9573966B2, “Anti-cancer activity of novel bicyclic heterocycles” (Katholieke Universiteit Leuven, K.U.Leuven R&D, priority 2010, dated 2017).

One may read the IC50 as the concentration that gives 50% inhibition.

One assay has as its system HL-60 cells. Description: Inhibition of HL-60 leukemic cell line proliferation (WST-1). It is filed as cell-based, human. The note with it: Homo sapiens, 48 h; cytotoxicity on HL-60 cells, two days incubation, WST-1 read-out. As for the experimental part:
(§1) HL-60 cell line, a human promyelocytic leukemia (ATCC; CCL-240) cell line, was grown in RPMI-1640 medium (Lonza, Belgium) supplemented with 10% fetal calf serum (Hyclone, US) and antibiotics. Exponential growing phase cells were seed in flat bottom 96-well microplates (TTP, Switzerland) at 50000 cells per well in 220 μl of medium with compounds (in different concentrations) and incubated for two days at 37° C., 5% CO2. After incubation, 100 μl of supernatant were removed and 10 μl of WST-1 (Roche, Switzerland) were added. After 2 hour incubation at 37° C., 5% CO2, optical densities were measured at 450 nm. Proliferation is calculated with respect of control points (no compound and treatment with Triton X100 to have maximum and minimum proliferation data). The IC50 was determined from a graph with at least four points, each derived from the mean of at least 2 experiments. […] The results are shown in Table 2 for a number of compounds.
In general terms: Formazan colour is commonly taken as a measure of viable cells.

The subject of another assay is HSB-2 cells. Description: Inhibition of HSB-2 leukemic cell line proliferation (WST-1). It is filed as cell-based, human. The note with it: Homo sapiens, HSB2, 48 h, cytotoxicity on HSB-2 cells, two days incubation, WST-1 read-out. As for the experimental part:
as §1, with “HSB2 cell” for “HL-60 cell”, “human acute lymphoblastic” for “human promyelocytic”, “(ATCC; CCL-120.1)” for “(ATCC; CCL-240)”, “Table 1” for “Table 2”

The structures appear in SMILES notation.

Turning to `Nc1nc(N2CCN(C(=O)COc3ccccc3)CC2)c2nc(CCc3ccc(F)cc3)sc2n1` [Example 134, 5-amino-2-[2-(4-fluorophenyl)ethyl]-7-(4-[2-phenoxyacetyl]piperazin-1-yl)-thiazolo[5,4-d]pyrimidine], the half-inhibitory concentration (IC50) in the assay on HL-60 cells and in the assay on HSB-2 cells was over 10 µM in each case.
Take `Cc1cccc(NC(=O)N2CCN(c3nc(N)nc4oc(CCc5ccc(F)cc5)nc34)CC2)c1` [Example 196, 5-amino-2-[2-(4-fluorophenyl)ethyl]-7-(4-m-tolylcarbamoylpiperazin-1-yl)-oxazolo[5,4-d]pyrimidine]: the IC50 in the assay on HL-60 cells and in the assay with HSB-2 cells was over 10 µM in each case.
Consider `Nc1nc(N2CCN(C(=O)COc3cccc([N+](=O)[O-])c3)CC2)c2nc(CCc3ccc(F)cc3)sc2n1` [Example 131, 5-amino-2-[2-(4-fluorophenyl)ethyl]-7-(4-[2-(3-nitrophenoxy)acetyl]piperazin-1-yl)-thiazolo[5,4-d]pyrimidine], for which the IC50 with HL-60 cells and in the assay with HSB-2 cells was over 10 µM throughout.
Regarding `Cc1cccc(NC(=O)N2CCN(c3nc(N)nc4sc(-c5ccccc5)cc34)CC2)c1` [Example 330, 4-(2-amino-6-phenylthieno[2,3-d]pyrimidin-4-yl)-N-m-tolylpiperazine-1-carboxamide], the IC50 in the assay on HL-60 cells is over 10 µM; in the assay with HSB-2 cells, 7.61 µM.
The matching figures for `Nc1nc(N2CCN(C(=O)COc3ccc(Cl)cc3)CC2)c2nc(CCc3ccccc3)sc2n1` [Example 118, 5-amino-7-[4-(4-chlorophenoxyacetyl)piperazin-1-yl]-2-(2-phenylethyl)thiazolo[5,4-d]pyrimidine]: 9.97 µM and 4.53 µM.
For the compound `CN(C(=O)CN1CCN(c2nc(N)nc3oc(CCc4ccc(F)cc4)nc23)CC1)c1ccccc1` [Example 198, 5-amino-2-[2-(4-fluorophenyl)ethyl]-7-(4-[(methylphenyl-carbamoyl)methyl]piperazin-1-yl)-oxazolo[5,4-d]pyrimidine], the IC50 with HL-60 cells and in the assay with HSB-2 cells was over 10 µM in each case.
Regarding `Nc1nc(N2CCN(C(=O)COc3cccc([N+](=O)[O-])c3)CC2)c2nc(-c3ccc(F)cc3)oc2n1` [Example 193, 5-amino-2-(4-fluorophenyl)-7-(4-[2-(3-nitrophenoxy)acetyl]-piperazin-1-yl)-oxazolo[5,4-d]pyrimidine], the IC50 with HL-60 cells and in the assay on HSB-2 cells was over 10 µM throughout.
Consider `Nc1nc(N2CCN(C(=O)COc3ccc(Cl)cc3)CC2)c2nc(SC3CCCC3)[nH]c2n1` [Example 429, 1-(4-(2-amino-8-(cyclopentylthio)-9H-purin-6-yl)piperazin-1-yl)-2-(4-chlorophenoxy)ethanone], for which the IC50 was over 10 µM in the assay on HL-60 cells and 7.87 µM in the assay with HSB-2 cells.
The matching figures for `Nc1nc(N2CCN(C(=O)COc3ccc(Cl)cc3)CC2)c2nc(-c3ccc(Cl)cc3)[nH]c2n1` [Example 392, 1-(4-(2-amino-8-(4-chlorophenyl)-9H-purin-6-yl)piperazin-1-yl)-2-(4-chlorophenoxy)ethanone]: 3.14 µM and 2.23 µM.
The matching figures for `COc1cccc(-c2nc3c(N4CCN(C(=O)COc5ccc(Cl)cc5)CC4)nc(N)nc3s2)c1` [Example 124, 5-amino-7-[4-(4-chlorophenoxyacetyl)piperazin-1-yl]-2-(3-methoxyphenyl)thiazolo[5,4-d]pyrimidine]: 0.96 µM and 2.29 µM.
In the same order, the values of `CCC(c1ccc(F)cc1)c1nc2c(N3CCN(C(=O)COc4ccc(Cl)cc4)CC3)nc(N)nc2s1` (stereo not drawn) [Example 150, 5-amino-2-[1-(4-fluorophenyl)propyl]-7-(4-[2-(4-chlorophenoxy)acetyl]piperazin-1-yl)thiazolo[5,4-d]pyrimidine] are over 10 µM and over 10 µM.
On to `Cc1cccc(NC(=O)N2CCCN(c3nc(N)nc4[nH]c(-c5ccc(F)cc5)nc34)CC2)c1` [Example 422, 4-(2-amino-8-(4-fluorophenyl)-9H-purin-6-yl)-N-m-tolyl-1,4-diazepane-1-carboxamide], for which the IC50 in the assay on HL-60 cells and in the assay on HSB-2 cells was over 10 µM each time.
